Results on one molecule are retold here after US20210038564A1, “METHODS FOR SCAR PREVENTION” (Northwestern University, priority 2009, published 2021).

The subject of this experiment is hypertrophic scar formation. Description: Hypertrophic scar model in rabbit ear, 7-mm wounds, scar elevation index. The class given is in vivo, rabbit (New Zealand White). An excerpt:
Using a well-established hypertrophic scar model in rabbit ear (Brown et al. (2008) Plast. Reconstr. Surg. 121:1165-1172; Kim et al. (2003) Wound Repair Regen. 11:368-372; Kryger et al. (2007) J Am. Coll. Surg. 205:78-88; Lu et al. (2005) J Am. Coll. Surg. 201:391-397; Morris et al. (2007) Plast. Reconstr. Surg. 100:674-681; Reid et al. (2006) Wound Repair Regen. 14:138-141; Reid et al. (2007) J Plast. Reconstr. Aesthet. Surg. 60:64-72; Saulis et al. (2002) Plast. Reconstr. Surg. 110:177-183; each herein incorporated by reference in its entirety), the effects of local administration of statins (e.g., Simvastatin, Lovastatin, Prevastatin) were investigated in experiments conducted during the course of developing some embodiments of the present technology. […] The effectiveness of statin administration on inhibition of hypertrophic scar formation was assessed by histological determination of scar elevation index (FIG. 1). The scar elevation index is determined by the ratio of total wound area tissue height to the area of normal tissue below the hypertrophic scar. […]
Whereas the dosages in terms of μMol were equivalent for all 3 statins, the μg dosage levels for Lovastatin and Prevastatin were double those used for Simvastatin. Scar Elevation Index was determined for 28 rabbits, as indicated: […]

Take `CC[C@H](C)C(=O)O[C@H]1C[C@@H](C)C=C2C=C[C@H](C)[C@H](CC[C@@H]3C[C@@H](O)CC(=O)O3)[C@H]21` [Lovastatin]: where the note is “40 μM per wound, local injection”, the hypertrophic scar formation entry was “inhibit hypertrophic scar formation”. Moreover, for the setting “lowest level of drug administered (40 μM per wound), injections on days 15, 20, 25, harvest on day 35, versus vehicle”, the “scar elevation index (SEI)” value is listed as “significantly lower SEI”.
